Experimental data taken from patent US12441703B2, “Carboxamides as modulators of sodium channels” (VERTEX PHARMACEUTICALS INCORPORATED, priority 2019, dated 2025).

The compounds below were run against human NaV 1.8 (Homo sapiens, UniProt Q9Y5Y9) (assay: E-VIPR assay for detecting and measuring NaV inhibition properties). Conditions: E-VIPR assay conducted in the presence of human serum; HEK cells expressing truncated human NaV 1.8; read-out: IC50.
Type: cell-based
Method in brief: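 Membrane-potential (coumarin/oxonol) readout after 10 s of 10 Hz biphasic electrical stimulation on E-VIPR. Compounds: 11-point 3-fold dilutions, […], 0.625% DMSO, 30 min at room temperature, human serum optional. Cells: HEK expressing truncated human NaV1.8 co-transduced with KIR2.1.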

Sequence of human NaV 1.8 (Q9Y5Y9 whole entry, looked up, the tested form may be a part): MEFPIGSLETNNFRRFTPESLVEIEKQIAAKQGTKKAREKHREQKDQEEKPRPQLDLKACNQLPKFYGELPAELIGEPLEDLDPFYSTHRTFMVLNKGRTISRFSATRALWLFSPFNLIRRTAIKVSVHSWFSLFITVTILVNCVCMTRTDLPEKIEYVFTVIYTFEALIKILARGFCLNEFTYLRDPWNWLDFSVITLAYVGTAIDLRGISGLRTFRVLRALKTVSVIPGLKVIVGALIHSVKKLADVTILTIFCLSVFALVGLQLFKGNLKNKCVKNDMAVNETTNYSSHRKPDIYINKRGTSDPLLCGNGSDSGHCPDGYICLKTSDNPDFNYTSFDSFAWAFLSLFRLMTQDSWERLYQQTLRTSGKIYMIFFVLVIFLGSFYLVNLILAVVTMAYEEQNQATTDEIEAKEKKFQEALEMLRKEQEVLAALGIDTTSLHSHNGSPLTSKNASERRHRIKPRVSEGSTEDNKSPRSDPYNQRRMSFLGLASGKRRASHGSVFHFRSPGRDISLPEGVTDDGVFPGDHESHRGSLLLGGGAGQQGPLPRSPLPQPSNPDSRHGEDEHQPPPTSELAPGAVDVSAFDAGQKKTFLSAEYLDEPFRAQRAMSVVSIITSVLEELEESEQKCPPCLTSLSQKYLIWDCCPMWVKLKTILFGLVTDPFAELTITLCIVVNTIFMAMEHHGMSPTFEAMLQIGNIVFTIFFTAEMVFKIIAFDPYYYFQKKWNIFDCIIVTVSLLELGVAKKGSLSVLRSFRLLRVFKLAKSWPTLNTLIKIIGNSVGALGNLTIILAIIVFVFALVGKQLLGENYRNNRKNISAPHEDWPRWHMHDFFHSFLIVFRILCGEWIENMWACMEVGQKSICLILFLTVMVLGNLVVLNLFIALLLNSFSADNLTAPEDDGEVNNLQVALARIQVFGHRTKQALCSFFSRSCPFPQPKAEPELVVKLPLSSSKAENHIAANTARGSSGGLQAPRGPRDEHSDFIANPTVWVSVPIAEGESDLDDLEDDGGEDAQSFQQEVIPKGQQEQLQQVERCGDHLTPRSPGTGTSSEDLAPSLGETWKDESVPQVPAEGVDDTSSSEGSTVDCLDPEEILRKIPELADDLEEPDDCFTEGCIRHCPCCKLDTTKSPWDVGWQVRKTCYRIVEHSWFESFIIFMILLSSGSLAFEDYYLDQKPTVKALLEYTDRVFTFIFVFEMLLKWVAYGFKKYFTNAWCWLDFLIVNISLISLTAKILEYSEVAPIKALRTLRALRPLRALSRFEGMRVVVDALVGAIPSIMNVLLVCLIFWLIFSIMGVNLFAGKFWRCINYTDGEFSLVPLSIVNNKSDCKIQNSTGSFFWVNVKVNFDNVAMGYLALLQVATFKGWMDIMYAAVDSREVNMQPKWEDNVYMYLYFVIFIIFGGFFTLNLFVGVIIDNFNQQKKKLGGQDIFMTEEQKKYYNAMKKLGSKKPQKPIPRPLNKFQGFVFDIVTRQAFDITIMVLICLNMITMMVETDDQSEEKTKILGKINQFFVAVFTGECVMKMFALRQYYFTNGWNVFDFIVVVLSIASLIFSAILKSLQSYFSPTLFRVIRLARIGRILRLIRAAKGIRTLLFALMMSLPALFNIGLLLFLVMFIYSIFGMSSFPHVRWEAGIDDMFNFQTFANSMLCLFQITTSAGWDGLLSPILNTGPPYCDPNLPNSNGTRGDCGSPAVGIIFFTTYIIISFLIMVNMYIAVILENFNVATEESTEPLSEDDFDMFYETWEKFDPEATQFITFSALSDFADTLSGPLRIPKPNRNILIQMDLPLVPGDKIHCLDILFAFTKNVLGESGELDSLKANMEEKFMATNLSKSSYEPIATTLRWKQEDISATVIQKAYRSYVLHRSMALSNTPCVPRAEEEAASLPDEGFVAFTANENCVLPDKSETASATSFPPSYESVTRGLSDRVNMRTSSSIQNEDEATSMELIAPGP

| Compound | IC50 |
| --- | --- |
| Cc1cc(F)ccc1Oc1ccc(C(F)(F)F)c(F)c1C(=O)Nc1ccc(C(N)=O)nc1 [Compound 101, 5-[[2-fluoro-6-(4-fluoro-2-methyl-phenoxy)-3-(trifluoromethyl)benzoyl]amino]pyridine-2-carboxamide] | 525 nM |
| COc1cc(F)ccc1Oc1ccc(C(F)(F)F)c(F)c1C(=O)Nc1ccc(C(N)=O)nc1 [Compound 104, 5-[[2-fluoro-6-(4-fluoro-2-methoxy-phenoxy)-3-(trifluoromethyl)benzoyl]amino]pyridine-2-carboxamide] | 380 nM |
| [2H]C([2H])([2H])Oc1cc(OC(F)(F)F)ccc1Oc1ccc(C(F)(F)F)cc1C(=O)Nc1ccc(C(N)=O)nc1 [Compound 106] | 1400 nM |
| NC(=O)c1cc(NC(=O)c2ccc(C(F)(F)F)cc2Oc2ccc(F)c(Cl)c2)ccn1 [Compound 107, 4-[[2-(3-chloro-4-fluoro-phenoxy)-4-(trifluoromethyl)benzoyl]amino]pyridine-2-carboxamide] | 2380 nM |
| CC(C)Oc1ccc(Oc2cc(C(F)(F)F)ccc2C(=O)Nc2ccnc(C(N)=O)c2)cc1Cl [Compound 108, 4-[[2-(3-chloro-4-isopropoxy-phenoxy)-4-(trifluoromethyl)benzoyl]amino]pyridine-2-carboxamide] | > 3000 nM |
| NC(=O)c1cc(NC(=O)c2ccc(C(F)(F)F)cc2Oc2ccc(OC3CCCCC3)cc2)ccn1 [Compound 109, 4-[[2-[4-(cyclohexoxy)phenoxy]-4-(trifluoromethyl)benzoyl]amino]pyridine-2-carboxamide] | > 3000 nM |
| NC(=O)c1cc(NC(=O)c2ccc(C(F)(F)F)cc2Oc2cccc(C3CCCCC3)c2)ccn1 [Compound 110, 4-[[2-(3-cyclohexylphenoxy)-4-(trifluoromethyl)benzoyl]amino]pyridine-2-carboxamide] | > 3000 nM |
| NC(=O)c1cc(NC(=O)c2ccc(C(F)(F)F)cc2Oc2ccc(F)cc2F)ccn1 [Compound 111, 4-[[2-(2,4-difluorophenoxy)-4-(trifluoromethyl)benzoyl]amino]pyridine-2-carboxamide] | > 3000 nM |
| CC(F)(F)c1cc(F)ccc1Oc1cc(C(F)(F)F)ccc1C(=O)Nc1ccnc(C(N)=O)c1 [Compound 112, 4-[[2-[2-(1,1-difluoroethyl)-4-fluoro-phenoxy]-4-(trifluoromethyl)benzoyl]amino]pyridine-2-carboxamide] | > 3000 nM |
| Cc1cc(F)ccc1Oc1cc(C(F)(F)F)ccc1C(=O)Nc1ccnc(C(N)=O)c1 [Compound 113, 4-[[2-(4-fluoro-2-methyl-phenoxy)-4-(trifluoromethyl)benzoyl]amino]pyridine-2-carboxamide] | > 3000 nM |
| [2H]C([2H])([2H])Oc1cc(OC(F)(F)F)ccc1Oc1ccc2c(c1C(=O)Nc1ccnc(C(N)=O)c1)OC(F)(F)O2 [Compound 114, 4-[[2,2-difluoro-5-[2-(trideuteriomethoxy)-4-(trifluoromethoxy)phenoxy]-1,3-benzodioxole-4-carbonyl]amino]pyridine-2-carboxamide] | 510 nM |
| [2H]C([2H])([2H])Oc1cc(OC(F)(F)F)ccc1Oc1ccc2c(c1C(=O)Nc1ccc(C(N)=O)nc1)OC(F)(F)O2 [Compound 115] | > 3000 nM |
| COc1c(Oc2ccc(C(F)(F)F)c(F)c2C(=O)Nc2ccc(C(N)=O)nc2)ccc(F)c1F [Compound 118, 5-[[6-(3,4-difluoro-2-methoxy-phenoxy)-2-fluoro-3-(trifluoromethyl)benzoyl]amino]pyridine-2-carboxamide] | 695 nM |
| Cc1c(C(F)(F)F)ccc(Oc2ccc(F)c(F)c2)c1C(=O)Nc1ccnc(C(N)=O)c1 [Compound 126, 4-[[6-(3,4-difluorophenoxy)-2-methyl-3-(trifluoromethyl)benzoyl]amino]pyridine-2-carboxamide] | 180 nM |
| Cc1c(C(F)(F)F)ccc(Oc2ccc(OC(C)C)cc2F)c1C(=O)Nc1ccnc(C(N)=O)c1 [Compound 132, 4-[[6-(2-fluoro-4-isopropoxy-phenoxy)-2-methyl-3-(trifluoromethyl)benzoyl]amino]pyridine-2-carboxamide] | > 3000 nM |
| Cc1c(C(F)(F)F)ccc(Oc2ccc(Cl)cc2F)c1C(=O)Nc1ccnc(C(N)=O)c1 [Compound 135, 4-[[6-(4-chloro-2-fluoro-phenoxy)-2-methyl-3-(trifluoromethyl)benzoyl]amino]pyridine-2-carboxamide] | 470 nM |

The next compounds have a lower IC50 than those just listed; values first:

| IC50 | Compound |
| --- | --- |
| 36 nM | Cc1cc(F)ccc1Oc1ccc(C(F)(F)F)c(F)c1C(=O)Nc1ccnc(C(N)=O)c1 [Compound 102, 4-[[2-fluoro-6-(4-fluoro-2-methyl-phenoxy)-3-(trifluoromethyl)benzoyl]amino]pyridine-2-carboxamide] |
| 13 nM | COc1cc(F)ccc1Oc1ccc(C(F)(F)F)c(F)c1C(=O)Nc1ccnc(C(N)=O)c1 [Compound 103, 4-[[2-fluoro-6-(4-fluoro-2-methoxy-phenoxy)-3-(trifluoromethyl)benzoyl]amino]pyridine-2-carboxamide] |
| 73 nM | [2H]C([2H])([2H])Oc1cc(OC(F)(F)F)ccc1Oc1ccc(C(F)(F)F)cc1C(=O)Nc1ccnc(C(N)=O)c1 [Compound 105, 4-[[2-[2-(trideuteriomethoxy)-4-(trifluoromethoxy)phenoxy]-5-(trifluoromethyl)benzoyl]amino]pyridine-2-carboxamide] |
| 25 nM | [2H]C([2H])([2H])Oc1cc(OC(F)(F)F)ccc1Oc1ccc(C(F)(F)F)c(C)c1C(=O)Nc1ccc(C(N)=O)nc1 [Compound 116, 5-[[2-methyl-6-[2-(trideuteriomethoxy)-4-(trifluoromethoxy)phenoxy]-3-(trifluoromethyl)benzoyl]amino]pyridine-2-carboxamide] |
| 2 nM | [2H]C([2H])([2H])Oc1cc(OC(F)(F)F)ccc1Oc1ccc(C(F)(F)F)c(C)c1C(=O)Nc1ccnc(C(N)=O)c1 [Compound 117] |
| 8 nM | COc1cc(OC(F)(F)F)ccc1Oc1cc(Br)cc(F)c1C(=O)Nc1ccnc(C(N)=O)c1 [Compound 119, 4-[[4-bromo-2-fluoro-6-[2-methoxy-4-(trifluoromethoxy)phenoxy]benzoyl]amino]pyridine-2-carboxamide] |
| 20 nM | COc1c(Oc2ccc(C(F)(F)F)c(C)c2C(=O)Nc2ccnc(C(N)=O)c2)ccc(F)c1F [Compound 120, 4-[[6-(3,4-difluoro-2-methoxy-phenoxy)-2-methyl-3-(trifluoromethyl)benzoyl]amino]pyridine-2-carboxamide] |
| 16 nM | Cc1c(C(F)(F)F)ccc(Oc2ccc(OC(C)C)c(F)c2F)c1C(=O)Nc1ccnc(C(N)=O)c1 [Compound 121, 4-[[6-(2,3-difluoro-4-isopropoxy-phenoxy)-2-methyl-3-(trifluoromethyl)benzoyl]amino]pyridine-2-carboxamide] |
| 25 nM | Cc1c(C(F)(F)F)ccc(Oc2ccc(F)cc2Cl)c1C(=O)Nc1ccnc(C(N)=O)c1 [Compound 122, 4-[[6-(2-chloro-4-fluoro-phenoxy)-2-methyl-3-(trifluoromethyl)benzoyl]amino]pyridine-2-carboxamide] |
| 53 nM | Cc1c(C(F)(F)F)ccc(Oc2ccc(OC(F)(F)F)cc2)c1C(=O)Nc1ccnc(C(N)=O)c1 [Compound 123, 4-[[2-methyl-6-[4-(trifluoromethoxy)phenoxy]-3-(trifluoromethyl)benzoyl]amino]pyridine-2-carboxamide] |
| 16 nM | Cc1c(C(F)(F)F)ccc(Oc2ccc(OC(C)C)c(Cl)c2)c1C(=O)Nc1ccnc(C(N)=O)c1 [Compound 124, 4-[[6-(3-chloro-4-isopropoxy-phenoxy)-2-methyl-3-(trifluoromethyl)benzoyl]amino]pyridine-2-carboxamide] |
| 140 nM | Cc1c(C(F)(F)F)ccc(Oc2ccc(F)c3c2OCC3)c1C(=O)Nc1ccnc(C(N)=O)c1 [Compound 125, 4-[[6-[(4-fluoro-2,3-dihydrobenzofuran-7-yl)oxy]-2-methyl-3-(trifluoromethyl)benzoyl]amino]pyridine-2-carboxamide] |
| 150 nM | Cc1c(C(F)(F)F)ccc(Oc2ccc(F)c(Cl)c2)c1C(=O)Nc1ccnc(C(N)=O)c1 [Compound 127, 4-[[6-(3-chloro-4-fluoro-phenoxy)-2-methyl-3-(trifluoromethyl)benzoyl]amino]pyridine-2-carboxamide] |
| 83 nM | Cc1c(C(F)(F)F)ccc(Oc2ccc(OC(F)(F)F)cc2F)c1C(=O)Nc1ccnc(C(N)=O)c1 [Compound 128, 4-[[6-[2-fluoro-4-(trifluoromethoxy)phenoxy]-2-methyl-3-(trifluoromethyl)benzoyl]amino]pyridine-2-carboxamide] |
| 20 nM | Cc1cc(F)ccc1Oc1ccc(C(F)(F)F)c(C)c1C(=O)Nc1ccnc(C(N)=O)c1 [Compound 129, 4-[[6-(4-fluoro-2-methyl-phenoxy)-2-methyl-3-(trifluoromethyl)benzoyl]amino]pyridine-2-carboxamide] |
| 40 nM | CCOc1ccc(Oc2ccc(C(F)(F)F)c(C)c2C(=O)Nc2ccnc(C(N)=O)c2)c(F)c1F [Compound 130, 4-[[6-(4-ethoxy-2,3-difluoro-phenoxy)-2-methyl-3-(trifluoromethyl)benzoyl]amino]pyridine-2-carboxamide] |
| 155 nM | Cc1c(C(F)(F)F)ccc(Oc2ccc(F)cc2F)c1C(=O)Nc1ccnc(C(N)=O)c1 [Compound 131, 4-[[6-(2,4-difluorophenoxy)-2-methyl-3-(trifluoromethyl)benzoyl]amino]pyridine-2-carboxamide] |
| 9 nM | Cc1cc(OC(F)(F)F)ccc1Oc1ccc(C(F)(F)F)c(C)c1C(=O)Nc1ccnc(C(N)=O)c1 [Compound 133, 4-[[2-methyl-6-[2-methyl-4-(trifluoromethoxy)phenoxy]-3-(trifluoromethyl)benzoyl]amino]pyridine-2-carboxamide] |
| 120 nM | COc1cc(Cl)ccc1Oc1ccc(C(F)(F)F)c(C)c1C(=O)Nc1ccnc(C(N)=O)c1 [Compound 134, 4-[[6-(4-chloro-2-methoxy-phenoxy)-2-methyl-3-(trifluoromethyl)benzoyl]amino]pyridine-2-carboxamide] |
